Here are results for three molecules from US20250257062A1, “GLP-1R Agonist and Therapeutic Method Thereof” (Ascletis Pharma (China) Co., Limited, priority 2023, published 2025).

pEC50: −log10 of the molar value.

The nature of data set [1]: Single-dose oral administration pharmacokinetic study in SD rats. It is filed as in vivo. The note with it: Sprague-Dawley, rat, 5 mg/kg, plasma; for Cmax: male SD rats; for AUC(0-t): male, po, exposure over 0-24 hours. As to the method:
Single-dose oral administration pharmacokinetic (PK) studies in Sprague-Dawley (SD) rats Pharmacokinetic (PK) studies after a single-dose oral administration for compounds.
Protocol: Animals: Male Sprague-Dawley (SD) rats; Solvent: Solutol: PEG400: Tween80: Saline=10:40:2:48 (v/v/v/v); Dose: 5 mg/kg; Dosing concentration: 0.5 mg/mL in the solvent; Dosing volume: 10 mL/kg. Sample Collection: At each time point, approximately 0.15 mL of blood was drawn from the jugular vein sinus, and the collected whole blood was placed in an anticoagulant tube containing EDTA-K2. After collecting blood samples, they were processed with protein precipitation and then analyzed by LC-MS/MS.

In another data set the target is hGLP-1R (Homo sapiens (Human), UniProt P43220). Briefly: hGLP-1R cAMP assay (agonist cAMP stimulation, Flp-In-293-GLP1R cells). It is filed as cell-based. Particulars: 30 min at 37° C. As for the experimental part:
hGLP-1R cAMP Assay • 1. Cell line and reagent preparation • 1) Cell line: Flp-In-293-GLP1R • 2) Medium: DMEM+10% FBS+1×Penicillin-Streptomycin+200 μg/mL HB • 3) Test buffer: 1×HBSS+20 mM HEPES+0.1% BSA+500 μM IBMX • 2. Agonist test • a) Flpin-293-GLP1R cells were incubated in a 384-well assay plate (6007680-50, PE) using complete medium with 2,000 cells per well. • b) Prepared a 4× […] working solution with assay buffer. • c) Added 5 μL of 4× Compound Working Solution to the cell plate and incubated at 37° C. for 30 minutes. • d) Diluted Eu-cAMP tracer (1/50) with lysis buffer and added 10 μl/well to the assay plate. • e) Diluted Ulight-anti-cAMP (1/150) with lysis buffer and added 10 μl/well to the assay plate. • f) Incubated at constant temperature for 1 hour. • g) Read the plate on Envision 2105 plate reader at […]. • 3. Data Analysis • 3.1 The formula for calculating % Activity was as follows
[formula] • 3.2 Calculate EC50 and plot the effect-dose curve for cmpds:
[formula] • X: logarithm of agonist concentration; Y: percentage activity.
Background: Changes in cAMP serve as a functional read-out for many G protein-coupled receptors.

Chain of hGLP-1R (P43220 24-463): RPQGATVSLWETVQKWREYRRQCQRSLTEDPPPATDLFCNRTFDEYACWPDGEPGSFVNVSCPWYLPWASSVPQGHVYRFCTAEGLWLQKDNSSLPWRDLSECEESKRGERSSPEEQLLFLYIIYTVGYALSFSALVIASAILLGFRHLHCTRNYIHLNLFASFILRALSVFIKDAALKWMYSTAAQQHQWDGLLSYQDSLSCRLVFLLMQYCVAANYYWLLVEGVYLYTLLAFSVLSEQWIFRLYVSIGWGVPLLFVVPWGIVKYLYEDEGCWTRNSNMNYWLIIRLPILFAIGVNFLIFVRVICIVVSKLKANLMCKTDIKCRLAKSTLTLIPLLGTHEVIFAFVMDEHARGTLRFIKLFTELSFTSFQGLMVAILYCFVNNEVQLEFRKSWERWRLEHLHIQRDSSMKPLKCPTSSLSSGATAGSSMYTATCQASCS

What is called Cmax is the highest concentration seen after dosing. Usually AUC(0-t) stands for the area under the concentration-time curve up to a stated or last time point. Low readings indicate less exposure, high ones more exposure. A word on the pEC50: it is −log10 of the EC50, conventionally taken in molar units. Turning to `C[C@H]1c2c(nn(-c3ccc(F)c(C4CC4)c3)c2-n2ccn(-c3ccc4c(cnn4C4CC4)c3F)c2=O)CCN1C(=O)c1cc2cc(C3CCOCC3)ccc2n1[C@@]1(c2noc(=O)[nH]2)C[C@@H]1C` [Compound 33], in data set [1], the Cmax turned out to be 5610 ng/mL and the area under the curve AUC(0-t) was found to be 71200 ng·h/mL. In addition, the pEC50 on hGLP-1R was 10.70.
At hGLP-1R, `C[C@H]1c2c(nn(-c3ccc(F)c(C4CC4)c3)c2-n2ccn(-c3ccc(CP(C)(C)=O)cc3)c2=O)CCN1C(=O)c1cc2cc(C3CCOCC3)ccc2n1[C@@]1(c2noc(=O)[nH]2)C[C@@H]1C` [Compound 51] had a pEC50 of 10.55.
For the molecule `C[C@H]1c2c(nn(-c3ccc(F)c4c3CCC4)c2-n2ccn(-c3ccc4c(cnn4C4CC4)c3F)c2=O)CCN1C(=O)c1cc2cc(C3CCOCC3)ccc2n1[C@@]1(c2noc(=O)[nH]2)C[C@@H]1C` [Compound 45], in data set [1], the concentration peaked (Cmax) at 3210 ng/mL and the AUC(0-t) came to 29600 ng·h/mL. For the same molecule, the pEC50 at hGLP-1R is 10.82.
